Source: paper PMC13085583 (Cell host & microbe, 2026)
Read-outs that look alike come from different tables or passages of the source.

Tested on: CbCdnB
Conditions: 10 mM Tris-HCl pH 7.4, 25 mM KCl, 20 mM MgCl2, 1 mM MnCl2, 37 °C

Chain of CbCdnB (A0A0L9Y448 1-469): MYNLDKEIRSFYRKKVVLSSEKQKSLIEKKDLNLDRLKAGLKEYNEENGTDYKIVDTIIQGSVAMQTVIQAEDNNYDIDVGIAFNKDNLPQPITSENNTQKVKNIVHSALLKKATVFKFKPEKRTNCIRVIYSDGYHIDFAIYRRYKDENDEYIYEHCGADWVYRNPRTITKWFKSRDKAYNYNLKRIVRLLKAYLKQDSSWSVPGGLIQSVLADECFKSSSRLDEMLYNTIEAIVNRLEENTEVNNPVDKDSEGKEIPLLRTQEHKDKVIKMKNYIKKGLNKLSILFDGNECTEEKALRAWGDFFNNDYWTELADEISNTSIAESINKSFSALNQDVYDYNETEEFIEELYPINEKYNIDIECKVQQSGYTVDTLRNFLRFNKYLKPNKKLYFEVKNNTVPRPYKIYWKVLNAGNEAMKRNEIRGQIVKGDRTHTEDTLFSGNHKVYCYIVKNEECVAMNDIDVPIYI

Row | SMILES | ELISA of product 2′,3′-cGAMP (with GTP) | ELISA of product 2′,3′-cGAMP (with ATP)
1 | Nc1ncnc2c1ncn2[C@@H]1O[C@H](COP(=O)(O)OP(=O)(O)OP(=O)(O)O)[C@@H](O)[C@H]1O [ATP] | enzyme reaction products produced when the indicated synthase is incubated with ATP and GTP | –
2 | Nc1nc2c(ncn2[C@@H]2O[C@H](COP(=O)(O)OP(=O)(O)OP(=O)(O)O)[C@@H](O)[C@H]2O)c(=O)[nH]1 [GTP] | – | enzyme reaction products produced when the indicated synthase is incubated with ATP and GTP
